These results are taken from US10633389B2, “CARM1 inhibitors and uses thereof” (Epizyme, Inc., priority 2013, dated 2020).

pIC50: −log10 of the molar value.

The subject of this test is asymmetric di-methyl PABP1 in RKO cells. Nature of the test: RKO methylation assay, In Cell Western (ICW) for asymmetric di-methyl PABP1. The format is cell-based. To be noted: Homo sapiens, RKO, Cellular potencies, ICW PABP1me2a. A digest of the protocol:
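RKO cells treated with compound for 48 h at 37 °C, then fixed, permeabilized and immunostained for asymmetric di-methyl PABP1, with DRAQ5 as DNA stain. Infrared 700/800 nm signal ratio normalized to DMSO and 20 μM reference-compound controls; IC50 from triplicate wells.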
Regarding `CNC[C@@H](O)COc1ccc(Cl)c(-c2nc(N[C@H]3C[C@@](C)(OC)C3)c(C)c(-c3c(C)noc3C)n2)c1` [Example 110-3], the pIC50 is greater than 5.30.

On to `CNCC(O)COc1cccc(-c2nc(N(C)c3cncnc3)cc(N(C)C3CCOCC3)n2)c1` (stereo not shown) [Example 487-1a], for which the pIC50 was greater than 5.30.

Regarding `CNCC(O)COc1cccc(-c2nc(N[C@H]3CCC[C@@H](O)C3)c(C)c(-c3c(C)noc3C)n2)c1` (stereo partly shown) [Example 10-3], the pIC50 is greater than 5.30.

Take `CNC[C@@H](O)COc1ccc(F)c(-c2nc(-c3c(C)noc3C)c(C)c(N3CC4(CCN(C(=O)OC(C)C)CC4)C3)n2)c1` [Example 281-3]: the negative-log IC50 (pIC50) is greater than 5.30.

Turning to `CNC[C@@H](O)COc1ccc(Cl)c(-c2nc(-c3c(C)noc3C)c(C)c(N3Cc4cnn(C5CC5)c4C3)n2)c1` [Example 270-3], the pIC50 was greater than 5.30.

On to `CNCC(O)COc1cccc(-c2nc(-c3c(C)noc3C)cc(N3CCN(C)CC3)n2)c1` (stereo not shown) [Example 19-1a], for which the pIC50 is 4.70 to 5.00.

`CNCC(O)COc1cc(Cl)cc(-c2nc(NC3CCN(C4CC4)CC3)c(C)c(-c3c(C)noc3C)n2)c1` (stereo not shown) [Example 22-3] had a pIC50 greater than 5.30.

As for `CNCC(O)COc1cccc(-c2nc(NC3CCCN(C(=O)N(C)C)C3)c(C)c(-c3c(C)noc3C)n2)c1` (stereo not shown) [Example 216-1a], the pIC50 is greater than 5.30.

`CCOC(=O)N1CCOC[C@@H]1CNc1nc(-c2cccc(OC[C@H](O)CNC)c2)nc(-c2c(C)noc2C)c1C` [Example 277-1a] had a pIC50 greater than 5.30.

`CCNC(=O)N1CCN(c2nc(-c3cccc(OCC(O)CNC)c3)nc(-c3c(C)noc3C)c2C)CC1` (stereo not shown) [Example 106-1a] gave a pIC50 of 5.00 to 5.30.

On to `CCOC(=O)N1CCCC[C@@H]1CNc1nc(-c2cc(OC[C@H](O)CNC)ccc2Cl)nc(-c2c(C)noc2C)c1C` [Example 154-3], for which the pIC50 was greater than 5.30.

In turn, `CNCC(O)COc1cccc(-c2nc(N[C@H]3C[C@@H](O)C3)cc(-c3c(C)noc3C)n2)c1` (stereo partly shown) [Example 41-1a] showed a pIC50 of 4.70 to 5.00.

For the compound `CNCC(O)COc1cc(Cl)cc(-c2nc(C(=O)NCC3CCOCC3)cc(N(C)C3CCOCC3)n2)c1` (stereo not shown) [Example 508-1a], the pIC50 is greater than 5.30.

As for `CNCC(O)COc1cccc(-c2nc(NCC3(O)CCOCC3)c(C)c(-c3c(C)noc3C)n2)c1` (stereo not shown) [Example 114-1a], the pIC50 was 4.70 to 5.00.

`CNC[C@@H](O)COc1ccc(Cl)c(-c2nc(-c3c(C)noc3C)c(C)c(N3CC4(CCN(C5CC5)C4)C3)n2)c1` [Example 176-3] had a pIC50 greater than 5.30.

The compound `CNCC(O)COc1cccc(-c2nc(N[C@@H]3CCOC3)c(C)c(N3CC[C@@H](c4cccnc4)C3)n2)c1` (stereo partly shown) [Example 467-1a] had a pIC50 greater than 5.30.

`CNCC(O)COc1cccc(-c2nc(-c3c(C)noc3C)cc(N3CC[C@H](S(C)(=O)=O)C3)n2)c1` (stereo partly shown) [Example 69-1a] had a pIC50 of 4.70 to 5.00.

With `CNC[C@H](O)COc1ccc(Cl)c(-c2nc(-c3c(C)noc3C)c(C)c(N3CCC4(CC3)CN(C(=O)OC)C4)n2)c1` [Example 85-3], the pIC50 is greater than 5.30.

As for `CNCC(O)COc1cccc(-c2nc(NC3CCN(C(=O)OC(C)(C)C)C[C@H]3F)c(C)c(-c3c(C)noc3C)n2)c1` (stereo partly shown) [Example 208-1a], the pIC50 is greater than 5.30.

Compound `CNC[C@@H](O)COc1ccc(Cl)c(-c2nc(-c3c(C)noc3C)c(C)c(N3CC4(CCOC4)C3)n2)c1` [Example 120-3] gave a negative logarithm of the IC50 (pIC50) greater than 5.30.

In turn, `CCN1CCC[C@H]1CNc1nc(-c2cc(OC[C@@H](O)CNC)ccc2Cl)nc(-c2c(C)noc2C)c1C` [Example 48-3] showed a negative logarithm of the IC50 (pIC50) greater than 5.30.

`CNC[C@@H](O)COc1ccc(Cl)c(-c2nc(N[C@@H]3CCO[C@H](C)C3)c(C)c(-c3c(C)noc3C)n2)c1` [Example 132-3] gave a negative logarithm of the IC50 (pIC50) greater than 5.30.

For `CNCC(O)COc1cccc(-c2nc(NC3CC(F)C3)c(C)c(-c3c(C)noc3C)n2)c1` (stereo not shown) [Example 3-3], the pIC50 is greater than 5.30.

Consider `CNCC(O)COc1cccc(-c2nc(-c3c(C)noc3C)c(C)c(N3CCC4(CC3)CN(C(=O)N(C)C)C4)n2)c1` (stereo not shown) [Example 252-1a], for which the pIC50 was greater than 5.30.

For the compound `CNC[C@@H](O)COc1ccc(Cl)c(-c2nc(N[C@@H]3C[C@@H](C)O[C@@H](C)C3)c(C)c(-c3c(C)noc3C)n2)c1` [Example 182-3], the pIC50 is greater than 5.30.

`CNC[C@@H](O)COc1ccc(F)c(-c2nc(N[C@H]3CCN(C4CC4)C[C@H]3F)c(C)c(-c3c(C)noc3C)n2)c1` [Example 98-3]: the pIC50 is greater than 5.30.

`CNCC(O)COc1cccc(-c2nc(-c3c(C)noc3C)cc(N3CCN[C@@H](C)C3)n2)c1` (stereo partly shown) [Example 40-1a] had a pIC50 of 4.70 to 5.00.

For the compound `CNC[C@H](O)COc1cccc(-c2nc(NC3CCN(C(=O)OC)CC3)c(C)c(-c3c(C)noc3C)n2)c1` [Example 169-1a], the pIC50 is greater than 5.30.

`CNCC(O)COc1ccc(Cl)c(-c2nc(NCC3CCOCC3)c(C)c(-c3c(C)noc3C)n2)c1` (stereo not shown) [Example 9-3] had a pIC50 greater than 5.30.

As to `CNCC(O)COc1cccc(-c2nc(-c3c(C)noc3C)c(C)c(N3CCC4(CC3)CN(C3CC3)C4)n2)c1` (stereo not shown) [Example 294-1a], the pIC50 was greater than 5.30.

As to `CNC[C@@H](O)COc1ccc(Cl)c(-c2nc(-c3c(C)noc3C)c(C)c(N3Cc4[nH]nc(C)c4C3)n2)c1` [Example 224-3], the pIC50 is greater than 5.30.

In turn, `CNCC(O)COc1cccc(-c2nc(N[C@@H]3CCOC3)c(C)c(-c3cnc4[nH]ccc4c3)n2)c1` (stereo partly shown) [Example 355-1a] gave a pIC50 of 4.70 to 5.00.

Compound `CNC[C@@H](O)COc1ccc(F)c(-c2nc(-c3c(C)noc3C)c(C)c(N3Cc4nccnc4C3)n2)c1` [Example 226-3] had a pIC50 greater than 5.30.

In turn, `CNCC(O)COc1cccc(-c2nc(NC3CCOC3)c(C)c(-c3cn(C)nn3)n2)c1` (stereo not shown) [Example 335-1a] had a pIC50 of 5.00 to 5.30.

In turn, `CCOC(=O)c1sc(-c2cc(N(C)C3CCOCC3)nc(-c3cccc(OCC(O)CNC)c3)n2)nc1C` (stereo not shown) [Example 565-1a] showed a pIC50 of 4.70 to 5.00.

In the case of `CCOC(=O)N1CCCC(CNc2nc(-c3cccc(OCC(O)CNC)c3)nc(-c3c(C)noc3C)c2C)C1` (stereo not shown) [Example 194-1a], the pIC50 was greater than 5.30.

Compound `CNCC(O)COc1cccc(-c2nc(Nc3ncc(C)cn3)cc(N(C)C3CCOCC3)n2)c1` (stereo not shown) [Example 513-1a] showed a pIC50 of 5.00 to 5.30.

For `CNCC(O)COc1cccc(-c2nc(-c3ccnc(C(C)(C)O)c3)cc(N(C)C3CCOCC3)n2)c1` (stereo not shown) [Example 503-1a], the pIC50 is greater than 5.30.

In turn, `CNCC(O)COc1cccc(-c2nc(N3CCN4C(=O)OC[C@@H]4C3)cc(N(C)C3CCOCC3)n2)c1` (stereo partly shown) [Example 576-1a] gave a pIC50 of 4.70 to 5.00.

Take `CNCC(O)COc1cccc(-c2nc(N[C@H]3C[C@H]4CC[C@@H](C3)N4C(=O)OC)c(C)c(-c3c(C)noc3C)n2)c1` (stereo partly shown) [Example 266-1a]: the pIC50 is greater than 5.30.

With `CNCC(O)COc1cccc(-c2nc(NC3CCCC3)c(C)c(-c3c(C)noc3C)n2)c1` (stereo not shown) [Example 241-1a], the pIC50 was greater than 5.30.

In turn, `CNCC(O)COc1cccc(-c2nc(NC3(C)CCOCC3)c(C)c(-c3c(C)noc3C)n2)c1` (stereo not shown) [Example 101-1a] gave a pIC50 greater than 5.30.

Compound `CNCC(O)COc1cccc(-c2nc(-c3c(C)noc3C)c(C)c(N3CCO[C@H](CNC)C3)n2)c1` (stereo partly shown) [Example 124-1a] gave a pIC50 of 5.00 to 5.30.

In turn, `CNCC(O)COc1cccc(-c2nc(-c3c(C)noc3C)c(C)c(N3Cc4cccnc4C3)n2)c1` (stereo not shown) [Example 35-3] gave a pIC50 greater than 5.30.

Consider `CNC[C@@H](O)COc1cccc(-c2nc(NC3CCOCC3)cc(-c3c(C)noc3C)n2)c1` [Example 18-1a], for which the pIC50 is greater than 5.30.

`CNCC(O)COc1cccc(-c2nc(N[C@@H]3CCOC3)c(C)c(N3CCC4(CCNCC4)CC3)n2)c1` (stereo partly shown) [Example 429-1a] had a pIC50 of 4.70 to 5.00.

In the case of `CNCC(O)COc1cccc(-c2nc(C(=O)NCC3CCOCC3)cc(N(C)C3CCOCC3)n2)c1` (stereo not shown) [Example 548-1a], the pIC50 was 4.70 to 5.00.

Take `CNC[C@@H](O)COc1ccc(Cl)c(-c2nc(N[C@H]3C[C@@H](C)O[C@@H](C)C3)c(C)c(-c3c(C)noc3C)n2)c1` [Example 172-3]: the pIC50 was greater than 5.30.

Take `CNCC(O)COc1cccc(-c2nc(NC3CCOC(C)C3)c(C)c(-c3c(C)noc3C)n2)c1` (stereo not shown) [Example 239-1a]: the pIC50 was greater than 5.30.

For the compound `CNC[C@H](O)COc1ccc(Cl)c(-c2nc(-c3c(C)noc3C)c(C)c(N3Cc4cc(Cl)cnc4C3)n2)c1` [Example 87-3], the pIC50 was greater than 5.30.

`CNC[C@@H](O)COc1ccc(Cl)c(-c2nc(N[C@H]3CCO[C@@H](C)C3)c(Cl)c(-c3c(C)noc3C)n2)c1` [Example 149-3] gave a pIC50 greater than 5.30.

For the compound `CNCC(O)COc1cccc(-c2nc(N[C@@H]3CCOC3)c(C)c(N3CCC[C@@H](O)C3)n2)c1` (stereo partly shown) [Example 358-1a], the pIC50 is 4.70 to 5.00.

`CNCC(O)COc1cccc(-c2nc(-c3c(C)noc3C)c(C)c(N3CCN(C(=O)OCC(F)F)CC3)n2)c1` (stereo not shown) [Example 161-1a] gave a pIC50 greater than 5.30.

In turn, `CCOC(=O)N1CCC(Nc2nc(-c3cccc(OCC(O)CNC)c3)nc(-c3c(C)noc3C)c2C)C1` (stereo not shown) [Example 196-1a] had a pIC50 greater than 5.30.

For `CNCC(O)COc1cccc(-c2nc(-c3ccc(C(F)(F)F)nc3)cc(N(C)C3CCOCC3)n2)c1` (stereo not shown) [Example 613-1a], the pIC50 was 4.70 to 5.00.

As to `CNCC(O)COc1cccc(-c2nc(SC)cc(N(C)C3CCOCC3)n2)c1` (stereo not shown) [Example 573-1a], the pIC50 was 4.70 to 5.00.

`CNCC(O)COc1cccc(-c2nc(-c3c(C)noc3C)cc(N3CCN(C(=O)C4CC4)CC3)n2)c1` (stereo not shown) [Example 133-1a]: the pIC50 was greater than 5.30.

As for `CCOC(=O)N1CC[C@H](Nc2nc(-c3cc(OC[C@H](O)CNC)ccc3Cl)nc(-c3c(C)noc3C)c2C)C1` [Example 150-3], the pIC50 is greater than 5.30.

In the case of `CNCC(O)COc1cccc(-c2nc(N[C@H]3C[C@@H](C(C)(C)O)C3)c(C)c(-c3c(C)noc3C)n2)c1` (stereo partly shown) [Example 232-1a], the pIC50 was greater than 5.30.

For `CNCC(O)COc1cccc(-c2nc(NC3(C)CCOCC3)c(F)c(-c3c(C)noc3C)n2)c1` (stereo not shown) [Example 159-1a], the pIC50 is 4.70 to 5.00.

Compound `CNCC(O)COc1cccc(-c2nc(NCC3CCN(CC(F)F)CC3)c(C)c(-c3c(C)noc3C)n2)c1` (stereo not shown) [Example 205-1a] had a pIC50 greater than 5.30.

By pIC50 is commonly meant the negative decadic logarithm of the IC50, by convention in mol/L. Lower therefore signals a large IC50.
